“And” between values parts separate entries of the source, which are not always exact repeats. Equal values may be shown once.
Key:
Format in all cases: biochemical
AKT-3 = AKT-3 (Homo sapiens, UniProt Q9Y243); assay: AKT-3 inhibition assay (standard coupled enzyme assay); details: 170 μM ATP, 200 μM peptide, 45 nM AKT, 30° C.
PKA = PKA (Homo sapiens, UniProt P17612); assay: PKA inhibition assay (standard coupled enzyme assay); details: 50 μM ATP, 80 μM Kemptide, 18 nM PKA, 30° C.
Method: Compounds were screened for their ability to inhibit PKA using a standard coupled enzyme assay (Fox et al., Protein Sci., (1998) 7, 2249). Assays were carried out in a mixture of 100 mM HEPES 7.5, 10 mM MgCl2, 25 mM NaCl, 1 mM DTT and 3% DMSO. Final substrate concentrations in the assay were 50 μM ATP (Sigma Chemicals) and 80 μM peptide (Kemptide, American Peptide, Sunnyvale, Calif.). Assays were carried out at 30° C. and 18 nM PKA. Final concentrations of the components of the coupled enzyme system were 2.5 mM phosphoenolpyruvate, 300 μM NADH, 30 μg/ml pyruvate kinase and 10 μg/ml lactate dehydrogenase.
An assay stock buffer solution was prepared containing all of the reagents listed above, with the exception of ATP, and the test compound of interest. 55 μl of the stock solution was placed in a 96 well plate followed by addition of 2 μl of DMSO stock containing serial dilutions of the test compound (typically starting from a final concentration of 5 μM). The plate was preincubated for 10 minutes at 30° C. and the reaction initiated by addition of 5 μl of ATP (final concentration 50 μM). Initial reaction rates were determined with a Molecular Devices SpectraMax Plus plate reader over a 15 minute time course. IC50 and Ki data were calculated from non-linear regression analysis using the Prism software package (GraphPad Prism version 3.0a for Macintosh, GraphPad Software, San Diego Calif., USA).

PDK-1 = target: T1, PDK-1 (Homo sapiens, UniProt O15530); assay: PDK-1 inhibition assay (radioactive-phosphate incorporation); details: 40 μM ATP, 65 μM PDKtide, 25 nM PDK-1, 30° C.
T1 sequence (O15530 1-556): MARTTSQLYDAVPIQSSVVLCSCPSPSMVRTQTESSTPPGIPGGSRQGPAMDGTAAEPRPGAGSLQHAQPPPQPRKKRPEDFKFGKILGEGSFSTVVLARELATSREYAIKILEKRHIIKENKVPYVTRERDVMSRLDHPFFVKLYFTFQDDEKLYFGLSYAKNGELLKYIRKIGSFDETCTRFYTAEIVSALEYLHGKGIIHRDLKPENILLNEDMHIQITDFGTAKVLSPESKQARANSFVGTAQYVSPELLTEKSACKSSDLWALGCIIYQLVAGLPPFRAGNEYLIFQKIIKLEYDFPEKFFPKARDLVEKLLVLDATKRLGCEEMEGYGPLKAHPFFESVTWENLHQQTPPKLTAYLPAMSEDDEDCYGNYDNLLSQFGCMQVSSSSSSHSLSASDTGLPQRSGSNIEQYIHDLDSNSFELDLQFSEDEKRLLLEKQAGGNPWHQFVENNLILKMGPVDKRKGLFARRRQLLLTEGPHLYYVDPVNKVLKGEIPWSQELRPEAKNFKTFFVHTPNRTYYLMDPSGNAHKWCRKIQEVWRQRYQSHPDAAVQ

Chain of AKT-3 (Q9Y243 whole entry): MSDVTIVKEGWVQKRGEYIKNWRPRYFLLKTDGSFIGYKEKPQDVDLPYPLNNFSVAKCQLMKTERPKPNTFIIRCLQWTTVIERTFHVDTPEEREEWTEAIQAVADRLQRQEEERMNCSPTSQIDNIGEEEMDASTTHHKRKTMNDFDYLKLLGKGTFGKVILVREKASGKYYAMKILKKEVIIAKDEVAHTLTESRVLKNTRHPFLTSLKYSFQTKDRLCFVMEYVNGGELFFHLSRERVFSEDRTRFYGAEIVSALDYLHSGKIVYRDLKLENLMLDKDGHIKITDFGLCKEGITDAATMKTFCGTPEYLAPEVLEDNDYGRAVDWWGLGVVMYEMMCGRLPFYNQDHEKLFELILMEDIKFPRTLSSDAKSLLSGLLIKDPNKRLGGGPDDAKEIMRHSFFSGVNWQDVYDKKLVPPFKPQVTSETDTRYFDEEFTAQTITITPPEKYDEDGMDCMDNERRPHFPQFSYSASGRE

Row | SMILES | Ki (AKT-3) | Ki (PKA) | Ki (PDK-1)
1 | Cc1n[nH]c2ccc(NC(=O)C(CCN)c3cccc(Cl)c3F)cc12 (centres unmarked) [Compound I-116] | < 1 µM | < 1 µM | 
2 | NC(C(=O)Nc1ccc2[nH]ncc2c1)c1ccc(F)c(Cl)c1 (centres unmarked) [Compound I-55] | 1 to 10 µM | < 1 µM | 
3 | NCCC(C(=O)Nc1ccc2[nH]ncc2c1)c1cccc(C(F)(F)F)c1 (centres unmarked) [Compound I-104] | < 1 µM | < 1 µM | 
4 | NCCC(C(=O)Nc1ccc2[nH]ncc2c1)c1cc(C(F)(F)F)cc(Cl)n1 (centres unmarked) [Compound I-149] | < 1 µM | < 1 µM | 
5 | NCCNC(C(=O)Nc1ccc2[nH]ncc2c1)c1ccc(Cl)c(Cl)c1 (centres unmarked) [Compound I-69] |  | < 1 µM | 
6 | NC(C(=O)Nc1ccc2[nH]ncc2c1)c1cccc(Cl)c1 (centres unmarked) [Compound I-51] | 1 to 10 µM | < 1 µM | 
7 | N[C@@H](C(=O)Nc1ccc2[nH]ncc2c1)c1ccccc1 [Compound I-48] | 1 to 10 µM | < 1 µM | 
8 | Cc1n[nH]c2ccc(NC(=O)[C@H](O)c3cccc(Cl)c3)cc12 [Compound I-76] | 1 to 10 µM | < 1 µM | 
9 | Cc1n[nH]c2ccc(NC(=O)C(CN)c3ccc(Cl)s3)cc12 (centres unmarked) [Compound I-245] | < 1 µM | < 1 µM | 
10 | NC(C(=O)Nc1ccc2[nH]ncc2c1)c1c[nH]c2ccccc12 (centres unmarked) [Compound I-56] | 1 to 10 µM | < 1 µM | 
11 | O=C(Cc1cccc(Cl)c1)Nc1ccc2[nH]ncc2c1 [Compound I-6, 2-(3-Chloro-phenyl)-N-(1H-indazol-5-yl)-acetamide] |  | 1 to 5 µM | 
12 | NCC(C(=O)Nc1ccc2[nH]ncc2c1)c1cccc(Cl)c1F (centres unmarked) [Compound I-257] | < 1 µM |  | > 3 µM
13 | O=C(Cc1cccc(Cl)c1F)Nc1ccc2[nH]ncc2c1 [Compound I-93] |  | < 1 µM | 
14 | O=C(Nc1ccc2[nH]ncc2c1)C(CO)c1ccccc1 (centres unmarked) [Compound I-84] |  | 1 to 5 µM | 
15 | O=C(CCC(C(=O)O)c1ccccc1)Nc1ccc2[nH]ncc2c1 (centres unmarked) [Compound I-1014] | < 1 µM |  | > 3 µM
16 | O=C(CCCc1ccccc1)Nc1ccc2[nH]ncc2c1 [Compound I-92] |  | 1 to 5 µM | 
17 | NCCC(SCc1ccccc1)C(=O)Nc1ccc2[nH]ncc2c1 (centres unmarked) [Compound I-154] | 1 to 10 µM |  | > 3 µM
18 | O=C(Cc1c[nH]c2ccccc12)Nc1ccc2[nH]ncc2c1 [Compound I-24] |  | 1 to 5 µM | 
19 | COc1ccccc1C(CCN)C(=O)Nc1ccc2[nH]ncc2c1 (centres unmarked) [Compound I-1005] | < 1 µM |  | 1 to 3 µM
20 | NCC[C@@H](C(=O)Nc1ccc2[nH]nc(-c3ccccc3)c2c1)c1ccccc1 [Compound I-1052] | 1 to 10 µM |  | < 1 µM
21 | NCC(C(=O)Nc1ccc2[nH]ncc2c1)c1ccc(Cl)cc1F (centres unmarked) [Compound I-258] | < 1 µM |  | > 3 µM
22 | NCCC(C(=O)Nc1ccc2[nH]ncc2c1)c1cccc(OCc2ccccc2)c1 (centres unmarked) [Compound I-114] | 1 to 10 µM |  | > 3 µM
23 | Cc1cccc(C(CCN)C(=O)Nc2ccc3[nH]ncc3c2)c1 (centres unmarked) [Compound I-112] | < 1 µM |  | 1 to 3 µM
24 | O=C(Nc1ccc2[nH]ncc2c1)C(CO)c1ccc(F)c(Cl)c1 (centres unmarked) [Compound I-85] |  | < 1 µM | 
25 | N#Cc1ccc(-c2n[nH]c3ccc(NC(=O)C(CCN)c4ccccc4)cc23)cc1 (centres unmarked) [Compound I-259] | 1 to 10 µM |  | < 1 µM

Second part, the compound after the results:

Row | Ki (AKT-3) | Ki (PKA) | Ki (PDK-1) | SMILES
26 | < 1 µM |  | 1 to 3 µM | NCCC(C(=O)Nc1ccc2[nH]nc(NC(=O)c3ccc4ccccc4c3)c2c1)c1ccc(Cl)c(Cl)c1 (centres unmarked) [Compound I-170]
27 | 1 to 10 µM |  | > 3 µM | NCCC(C(=O)Nc1ccc2[nH]nc(NC(=O)COc3ccccc3)c2c1)c1ccccc1 (centres unmarked) [Compound I-1051]
28 | 1 to 10 µM |  | < 1 µM | NCCC(C(=O)Nc1ccc2[nH]nc(-c3cccc(Cl)c3)c2c1)c1ccccc1 (centres unmarked) [Compound I-241]
29 | < 1 µM |  | < 1 µM | NCC[C@@H](C(=O)Nc1ccc2[nH]nc(NC(=O)c3cccs3)c2c1)c1ccccc1 [Compound I-1049]
30 | < 1 µM |  | > 3 µM | CC(C)c1cccc(-c2n[nH]c3ccc(NC(=O)C(CCN)c4ccc(Cl)c(Cl)c4)cc23)c1 (centres unmarked) [Compound I-222]
31 | < 1 µM |  | 1 to 3 µM | Cc1cccc(Nc2n[nH]c3ccc(NC(=O)C(CCN)c4ccc(Cl)c(Cl)c4)cc23)c1 (centres unmarked) [Compound I-212]
32 | 1 to 10 µM |  | > 3 µM | NCCC(C(=O)Nc1ccc2[nH]nc(NC(=O)C3CCCCC3)c2c1)c1ccccc1 (centres unmarked) [Compound I-1050]
33 | 1 to 10 µM |  | 1 to 3 µM | Cc1cccc(Nc2n[nH]c3ccc(NC(=O)C(CCN)c4ccccc4)cc23)c1 (centres unmarked) [Compound I-1038]
34 | < 1 µM |  | < 1 µM | NCC[C@H](C(=O)Nc1ccc2[nH]nc(NC(=O)c3cccs3)c2c1)c1c(F)ccc(Cl)c1F [Compound I-1046]
35 | < 1 µM |  | < 1 µM | NCCC(C(=O)Nc1ccc2[nH]nc(-c3cccc(Cl)c3)c2c1)c1ccc(Cl)c(Cl)c1 (centres unmarked) [Compound I-253]
36 |  | < 1 µM |  | NCCC(C(=O)Nc1ccc2[nH]nc(-c3cccc(C(=O)O)c3)c2c1)c1ccccc1 (centres unmarked) [Compound I-246]
37 | < 1 µM |  | < 1 µM | Cc1cccc(-c2n[nH]c3ccc(NC(=O)C(CCN)c4ccc(Cl)c(Cl)c4)cc23)c1 (centres unmarked) [Compound I-251]
38 |  | < 1 µM |  | COC(=O)c1cccc(-c2n[nH]c3ccc(NC(=O)C(CCN)c4ccccc4)cc23)c1 (centres unmarked) [Compound I-244]
39 | < 1 µM |  | < 1 µM | NCCC(C(=O)Nc1ccc2[nH]nc(NC(=O)Nc3cccc(Cl)c3)c2c1)c1ccc(Cl)c(Cl)c1 (centres unmarked) [Compound I-173]
40 | 10 to 20 µM |  | > 3 µM | NCCC(C(=O)Nc1ccc2[nH]nc(NS(=O)(=O)c3ccccc3)c2c1)c1ccc(Cl)c(Cl)c1 (centres unmarked) [Compound I-190]
41 | 1 to 10 µM |  | < 1 µM | N#Cc1cccc(Nc2n[nH]c3ccc(NC(=O)[C@@H](CCN)c4c(F)ccc(Cl)c4F)cc23)c1 [Compound I-1048]
42 | 10 to 20 µM |  | 1 to 3 µM | NCCC(C(=O)Nc1ccc2[nH]nc(C(=O)Nc3ccccc3)c2c1)c1ccccc1 (centres unmarked) [Compound I-1040]
43 | 1 to 10 µM |  | 1 to 3 µM | NCCC(C(=O)Nc1ccc2[nH]nc(NC(=O)Nc3ccccc3)c2c1)c1ccc(Cl)c(Cl)c1 (centres unmarked) [Compound I-176]
44 | 1 to 10 µM |  | > 3 µM | NCCC(C(=O)Nc1cc(-c2ccccc2)c2[nH]ncc2c1)c1ccc(Cl)c(Cl)c1 (centres unmarked) [Compound I-150]
45 | < 1 µM |  | > 3 µM | N#Cc1cccc(Nc2n[nH]c3ccc(NC(=O)[C@H](CCN)c4c(F)ccc(Cl)c4F)cc23)c1 [Compound I-1047]
46 | 1 to 10 µM |  | > 3 µM | CC(=O)Nc1cccc(C(CCN)C(=O)Nc2ccc3[nH]ncc3c2)c1 (centres unmarked) [Compound I-111]
47 | < 1 µM |  | 1 to 3 µM and > 3 µM | N#Cc1cccc(Nc2n[nH]c3ccc(NC(=O)[C@H](CCN)c4ccccc4)cc23)c1 [Compound I-1054]
48 | < 1 µM |  | < 1 µM | NCCC(C(=O)Nc1ccc2[nH]nc(NC(=O)c3ccc4c(c3)OCO4)c2c1)c1ccc(Cl)c(Cl)c1 (centres unmarked) [Compound I-171]
49 | 1 to 10 µM |  | < 1 µM | CC(=O)c1ccc(-c2n[nH]c3ccc(NC(=O)C(CCN)c4ccccc4)cc23)cc1 (centres unmarked) [Compound I-250]
50 | 1 to 10 µM |  | 1 to 3 µM | N#Cc1cccc(Nc2n[nH]c3ccc(NC(=O)[C@@H](CCN)c4ccccc4)cc23)c1 [Compound I-1055]
51 | < 1 µM |  | 1 to 3 µM | NCCC(C(=O)Nc1ccc2[nH]nc(Nc3cccc(F)c3)c2c1)c1ccc(Cl)c(Cl)c1 (centres unmarked) [Compound I-213]
52 | < 1 µM |  | < 1 µM | NCC[C@@H](C(=O)Nc1ccc2[nH]nc(NC(=O)c3cccs3)c2c1)c1c(F)ccc(Cl)c1F [Compound I-1045]
53 | 1 to 10 µM |  | < 1 µM | NCC[C@@H](C(=O)Nc1ccc2[nH]nc(-c3ccccc3)c2c1)c1c(F)ccc(Cl)c1F [Compound I-1056]
54 | 1 to 10 µM |  | 1 to 3 µM | COc1cccc(C(CCN)C(=O)Nc2ccc3[nH]nc(C)c3c2)c1 (centres unmarked) [Compound I-1018]
55 | 1 to 10 µM |  | > 3 µM | NCCC(C(=O)Nc1ccc2[nH]nc(NS(=O)(=O)c3cccc(Cl)c3)c2c1)c1ccc(Cl)c(Cl)c1 (centres unmarked) [Compound I-191]
